One experiment deals with T1, Aurora B kinase (Homo sapiens, UniProt Q96GD4).
T1 construct: purchased Promega Corp
Put plainly: Aurora B kinase assay (ADP-Glo). The class given is biochemical. As to conditions: compounds 10 μM; miltefosine 10 μM or 1 μM; read-out: % inhibition ± SD at 10 μΜ Aurora B. On the procedure: Aurora B kinase assay: Inhibition of Aurora B kinase was determined using the ADP-Glo Kinase Enzyme System (Promega Corp., Madison, WI, USA). The positive control was SU6656 at a final concentration of 1 μM, with the NC being DMSO at the same concentration (v/v). An enzyme master mix containing 1 × buffer, 50 μM DTT and 17.5 ng/μL ([…]) Aurora B (all reagents provided in the kit) was prepared. A substrate master mix containing 1 × buffer, 36 μM adenosine triphosphate (ATP) and 7.5 ng/μL (15 ng/well) myelin basic protein (MBP) as a substrate (buffer and MBP were provided in the Aurora B Kinase Enzyme System; ultrapure ATP was provided in the ADP-Glo Kinase Assay System) was prepared. Two microliters of the enzyme master mix and 2 μL of the substrate master mix were added to each well of a 384-well low-volume plate. The plate was sealed using Thermowell sealing tape (Corning Inc., Corning, NY, USA) and incubated for 45 min at rt. The enzymatic reaction was stopped by adding 4 μL of ADP-Glo reagent (provided in the ADP-Glo Kinase Assay System) and the plate sealed using Thermowell sealing tape and incubated for 40 min at rt. Following this, 8 μL of detection reagent was added to each well, and the plate was sealed again and incubated for 45 min at rt, with the luminescence measured using the EnVision Multilabel 2103 Reader (PerkinElmer, Waltham, MA. USA). DMSO concentration was tolerated up to 2% v/v final.
(In general: ADP-Glo turns the ADP formed in a reaction into a luminescent signal.)

Experiment [1] relates to L. infantum MHOM/TN/80/LEM235 intracellular amastigotes. In words: Activity against L. infantum MHOM/TN/80/LEM235 intramacrophage amastigotes (infected THP-1, Giemsa staining). The class given is cell-based, Leishmania infantum. As to conditions: for Selectivity Index CC50/IC50: CC50 THP-1 / IC50 L. infantum MHOM/TN/80/LEM235; for IC50: Leishmania infantum, read-out: L. infantum MHOM/TN/80/LEM235 intracellular amastigotes IC50 ± SD. On the procedure:
THP-1 cells were differentiated with […] retinoic acid (Sigma, Saint Louis, MI, USA) for 3 days at 37 °C and 5% CO2. Infection of THP-1 cells with promastigotes was achieved by mixing the THP-1 and the parasite cultures at a ratio of 1:4 and incubation at 37 °C and 5% CO2. The next day cells were washed by centrifugation at 400 × g for 10 min, the pellet was resuspended in RPMI medium, and the suspension was overlaid with an equal volume of Histopaque 1077 (Invitrogen, Waltham, MA, USA). The free promastigotes were removed by centrifugation at 1000 × g for 20 min. The cell layer was washed with PBS twice and resuspended in RPMI at 4 × 10^5 cells/mL. Infection rate was assessed microscopically by Giemsa staining of the infected THP-1 suspension. An amount of 200 µL of infected THP-1 was plated in a 24-well tissue culture plate (Cellstar®, Greiner) (Sigma-Aldrich Chemie GMBH, Taufkirchen, Germany) and mixed with an equal volume of the appropriate compound concentration (compounds were dissolved in DMSO/ethanol, 50/50 v/v, to a final concentration of 65 mM and linear 5-fold dilutions ranging from 100 to 0.8 µM were done in the culture medium). Incubation proceeded for 72 h at 37 °C and 5% CO2, and the percentage of infected cells was monitored microscopically after Giemsa staining.

Experiment [2] has as its system T. b. brucei L427 WT bloodstream form. Put plainly: Activity against T. brucei bloodstream forms (resazurin-based assay). The class given is cell-based. As to conditions: Trypanosoma brucei; 10 μM, 72 h; read-out: Single Dose Assay 10μM Mean Inhibitory Activity (%) ± SD. On the procedure: Trypanosoma brucei brucei Lister 427 bloodstream forms were grown at 37 °C, 5% CO2 in complete HMI-9 medium supplemented with 10% foetal calf serum (FCS) and 100 UI/mL of penicillin/streptomycin. […] The efficacy of compounds against T. brucei bloodstream forms was evaluated using a modified resazurin-based assay previously described. Mid-log bloodstream forms were added to an equal volume of serial dilutions of compounds in supplemented complete HMI-9 medium at a final cell density of 5 × 10^3/mL. Following incubation for 72 h at 37 °C 5% CO2, 20 μL of a 0.5 mM resazurin solution was added and plates were incubated for a further 4 h under the same conditions. Fluorescence was measured at 540 nm and 620 nm excitation and emission wavelength, respectively, using a Synergy 2 Multi-Mode Reader (Biotek, Winooski, VT, USA).

This is an account of results in publication PMC8305768, “Design, Synthesis and Antiparasitic Evaluation of Click Phospholipids” (Molecules, 2021).

Where a name gives a salt, the structure may show the parent alone. Read-outs that look alike come from different tables or passages of the source.

T1 sequence (Q96GD4 whole entry): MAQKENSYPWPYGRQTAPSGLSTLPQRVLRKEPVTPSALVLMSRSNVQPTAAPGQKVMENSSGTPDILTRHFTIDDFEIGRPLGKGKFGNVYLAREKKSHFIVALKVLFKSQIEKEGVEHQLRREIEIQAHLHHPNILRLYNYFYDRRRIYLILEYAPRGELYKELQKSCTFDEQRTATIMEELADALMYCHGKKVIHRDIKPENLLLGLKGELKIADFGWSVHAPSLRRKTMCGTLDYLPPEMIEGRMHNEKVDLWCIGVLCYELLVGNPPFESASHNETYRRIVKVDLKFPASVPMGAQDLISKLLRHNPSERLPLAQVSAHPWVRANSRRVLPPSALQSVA

Take `CCCCCc1cn(CCCCCCCCCCCOP(=O)([O-])OCC[N+](C)(C)C)nn1` [Compound 25, 11-(4-pentyl-1H-1,2,3-triazol-1-yl)undecyl (2-(trimethylammonio)ethyl) phosphate inner salt]: the inhibition at 10 µM at Aurora B kinase is -10.3%. For the same molecule, the “Selectivity Index CC50/IC50” value in experiment [1] was greater than 10.7. The IC50 in experiment [1] (infected THP-1 cells, 72 h) was determined as 9.33 ± 0.99 µM.
In the case of `C[N+](C)(C)CCOP(=O)([O-])OCCCCCCCCCCCn1cc(CC2CCCC2)nn1` [Compound 28, 11-(4-(cyclopentylmethyl)-1H-1,2,3-triazol-1-yl)undecyl (2-(trimethylammo nio)ethyl) phosphate inner salt], the figures for the inhibition at 10 µM (on Aurora B kinase; in experiment [2]) were -11.7% and less than 20%, respectively. Moreover, the “Selectivity Index CC50/IC50” value in experiment [1] is on record as greater than 66.7. Moreover, the IC50 in experiment [1] (infected THP-1 cells, 72 h) worked out at 1.5 ± 0.4 µM.
For `C[N+](C)(C)CCOP(=O)([O-])OCCCCCCCCCCCn1cc(CC2CCCCC2)nn1` [Compound 29, 11-(4-(cyclohexylmethyl)-1H-1,2,3-triazol-1-yl)undecyl (2-(trimethylammonio)ethyl) phosphate inner salt], the inhibition at 10 µM at Aurora B kinase is -6.17%. Further, in experiment [1], the “Selectivity Index CC50/IC50” value is given as greater than 200. The IC50 in experiment [1] (infected THP-1 cells, 72 h) was determined as 0.5 ± 0.2 µM.
Consider `C[N+](C)(C)CCOP(=O)([O-])OCCCCCn1cc(CCCCCCCCNC(=O)OCc2ccccc2)nn1` [Compound 31, 5-(4-(8-(((benzyloxy)carbonyl)amino)octyl)-1H-1,2,3-triazol-1-yl)pentyl (2-(trimethylammonio)ethyl) phosphate inner salt], for which the inhibition at 10 µM in experiment [2] was 20 ± 1%.
As to `C[N+](C)(C)CCOP(=O)([O-])OCCCCCCCCCCCn1cc(CCCCCCCCNC(=O)OCc2ccccc2)nn1` [Compound 32, 11-(4-(8-(((benzyloxy)carbonyl)amino)octyl)-1H-1,2,3-triazol-1-yl)undecyl (2-(trimethylammonio)ethyl) phosphate inner salt], in experiment [2], the inhibition at 10 µM turned out to be 36 ± 4%.
With `C[N+](C)(C)CCCOP(=O)([O-])OCCCCCCCCCCCn1cc(CC2CCCCC2)nn1` [Compound 33, 11-(4-(cyclohexylmethyl)-1H-1,2,3-triazol-1-yl)undecyl (3-(trimethylammonio)propyl) phosphate inner salt], in experiment [2], the inhibition at 10 µM turned out to be 23 ± 3%.
`CCCCCCCCCCCCCCCCOP(=O)([O-])OCC[N+](C)(C)C` [Miltefosine, hexadecylphosphocholine, reference compound]: the inhibition at 10 µM on Aurora B kinase was -12.5%. Besides, the “Selectivity Index CC50/IC50” value in experiment [1] amounted to 4.9. Moreover, the IC50 in experiment [1] (THP-1, 72 h) turned out to be 6.68 ± 0.96 µM.
